The values below come from paper PMC7230731 (Marine Drugs, 2020).

The test system of series [1] is MCF-7 cells. As to the kind of experiment: SRB antiproliferative assay, MCF-7. To be noted: for IC50: MCF-7 breast cancer cells, SRB assay, 48 h, mean ± S.D. of three experiments; for potency relative to Staurosporine, MCF-7: ratio of IC50 values, MCF-7 cells. Type of series: cell-based, human. How it is done: (§1) 1. Anti-proliferative action toward human breast cell lines […]
(§2) and non-tumorigenic human breast epithelial cell line (MCF-10A) have been obtained from American Type Culture Collection (ATCC). The cells were maintained in Dulbecco's modified Eagle's medium (DMEM) supplemented with 10% heat inactivated fetal calf serum (GIBCO), penicillin (100 U/ml) and streptomycin (100 µg/ml) at 37 °C in humidified atmosphere containing 5% CO2. […]
(§3) grown in a 25 cm2 flask in 5 ml of culture medium.
(§4) The anti-proliferative activity of the tested compounds was measured in vitro using the Sulfo-Rhodamine-B stain (SRB) assay. Briefly, Cells were inoculated in 96-well microtiter plate (5X104 cells/ well) for 24 h before treatment with the tested compounds to allow attachment of cell to the wall of the plate. Tested compounds were dissolved in DMSO at 1 mg/ml immediately before use and diluted to the appropriate volume just before addition to the cell culture. Different concentrations of tested compounds, doxorubicin and sorafenib were added to the cells (three wells were prepared for each […]
(§5) atmosphere of 5% CO2. After 48 h cells were fixed, washed, and stained for 30 min with 0.4% (w/v) SRB dissolved in 1% acetic acid. Unbound dye was removed by four washes with 1% acetic acid, and attached stain was recovered with Tris-EDTA buffer. Color intensity was measured in an ELISA reader. The relation between percent of surviving fraction and drug concentration is plotted to get the survival curve for each cell line. […]
A general note: In SRB staining, fixed cells bind dye roughly in proportion to their protein.

For series [2], the system named is MCF-10A cells. As to the kind of experiment: SRB cytotoxicity assay, non-tumorigenic MCF-10A. Type of series: cell-based, human. To be noted: for Selectivity Index MCF-10A/MCF-7: IC50 MCF-10A / IC50 MCF-7; for IC50: non-tumorigenic human breast epithelial MCF-10A cells, SRB assay. The source says:
The two examined human breast cancer cell lines (MCF-7 and Breast MDA-MB-231), and non-tumorigenic human breast epithelial cell line (MCF-10A) have been obtained from the American Type Culture Collection (ATCC). Assessment of cytotoxicity for target indole derivatives has been performed following the SRB colorimetric assay procedures, as reported earlier.
1. Anti-proliferative action toward human breast cell lines
The two examined human breast cancer cell lines (MCF-7 and Breast MDA-MB-231), and non-tumorigenic human breast epithelial cell line (MCF-10A) have been obtained from American Type Culture Collection (ATCC). The cells were maintained in Dulbecco's modified Eagle's medium (DMEM) supplemented with 10% heat inactivated fetal calf serum (GIBCO), penicillin (100 U/ml) and streptomycin (100 µg/ml) at 37 °C in humidified atmosphere containing 5% CO2. Cells at a concentration of 0.50 x 106 were grown in a 25 cm2 flask in 5 ml of culture medium.
The anti-proliferative activity of the tested compounds was measured in vitro using the Sulfo-Rhodamine-B stain (SRB) assay. Briefly, Cells were inoculated in 96-well microtiter plate (5X104 cells/ well) for 24 h before treatment with the tested compounds to allow attachment of cell to the wall of the plate. Tested compounds were dissolved in DMSO at 1 mg/ml immediately before use and diluted to the appropriate volume just before addition to the cell culture. Different concentrations of tested compounds, doxorubicin and sorafenib were added to the cells (three wells were prepared for each individual dose). Cells were incubated with the compounds for 48 h at 37°C and in atmosphere of 5% CO2. After 48 h cells were fixed, washed, and stained for 30 min with 0.4% (w/v) SRB dissolved in 1% acetic acid. Unbound dye was removed by four washes with 1% acetic acid, and attached stain was recovered with Tris-EDTA buffer. Color intensity was measured in an ELISA reader. The relation between percent of surviving fraction and drug concentration is plotted to get the survival curve for each cell line. […]

Series [3] concerns MDA-MB-231 cells. As to the kind of experiment: SRB antiproliferative assay, MDA-MB-231. It is filed as cell-based, human. The note with it: for IC50: MDA-MB-231 triple-negative breast cancer cells, SRB assay, 48 h, mean ± S.D. of three experiments; for potency relative to Staurosporine, MDA-MB-231 / potency relative to non-brominated counterpart (9g vs 9d, 9h vs 9e), MDA-MB-231: ratio of IC50 values, MDA-MB-231 cells. On the procedure:
as §1, §2, §3, §4, §5

In series [4] the target is T1, CDK2 (Homo sapiens, UniProt P24941).
T1 construct: purchased Reaction Biology Corp. (Kinase HotSpot service)
As to the kind of experiment: CDK2 kinase inhibition (Reaction Biology HotSpot). It is filed as biochemical. The note with it: single dose of 10 µM; for % Enzyme Inhibitory Activity: 10 µM; for inhibition at 10 µM: read-out: % Enzyme Inhibitory Activity. On the procedure: The in vitro CDK2 kinase inhibition assay was carried out by Reaction Biology Corp. (Reaction Biology Corp., Chester, PA, USA) Kinase HotSpotSM service (http://www.reactionbiology.com).
5. CDK2 kinase inhibitory activity
Reaction Biology Corp. Kinase HotSpotSM service
(http://www.reactionbiology.com) was used for screening of tested compounds. CDK2 Kinase inhibitory activity was assessed by the HotSpot assay platform, which contained specific kinase/substrate pairs along with required cofactors. Base reaction buffer:
0.1 mM Na3VO4, 2 mM DTT, 1% DMSO. Testing compounds were dissolved in 100% DMSO to specific concentration. The serial dilution was conducted by Integra Viaflo Assist in DMSO. The reaction mixture containing the examined compound and 33P-ATP was incubated at room temperature for 2 h and radioactivity was detected by filter-binding method. Kinase activity data were expressed as the percent remaining kinase activity in test samples compared to vehicle (dimethyl sulfoxide) reactions.

Consider `O=C(Cc1c[nH]c2ccccc12)NN=C1C(=O)Nc2ccc(F)cc21` [Compound 7a, N′-(5-Fluoro-2-oxoindolin-3-ylidene)-2-(1H-indol-3-yl)acetohydrazide], for which the melting point lay in the range of 281 to 283 °C. Also, half-maximal inhibition in series [1] (Homo sapiens, MCF7, 48 h) (IC50) required 1.53 ± 0.02 µM. The “potency relative to Staurosporine, MCF-7” value in series [1] turned out to be 4.45 times. Moreover, in series [2], the “Selectivity Index MCF-10A/MCF-7” value is recorded as 9.2 and the IC50 worked out at 14.1 µM. Besides, the IC50 in series [3] (Homo sapiens, MDA-MB-231, 48 h) came to 9.04 ± 0.32 µM. Moreover, in series [4], the “% Enzyme Inhibitory Activity” value is 41% and the inhibition at 10 µM was 44%.

Regarding `O=C(Cc1c[nH]c2ccccc12)NN=C1C(=O)Nc2ccc(Cl)cc21` [Compound 7b, N′-(5-Chloro-2-oxoindolin-3-ylidene)-2-(1H-indol-3-yl)acetohydrazide], the melting point was in the range of 292 to 294 °C. The same compound registered an IC50 in series [1] (Homo sapiens, MCF7, 48 h) of 8.87 ± 0.43 µM. In addition, in series [2], the “Selectivity Index MCF-10A/MCF-7” value was 4.5 and the IC50 was 39.5 µM. In series [3] (Homo sapiens, MDA-MB-231, 48 h), the IC50 was determined as 2.88 ± 0.08 µM. For the same compound, in series [4], the “% Enzyme Inhibitory Activity” value is 41% and the inhibition at 10 µM came to 44%.

In turn, `O=C(Cc1c[nH]c2ccccc12)NN=C1C(=O)Nc2ccc(Br)cc21` [Compound 7c, N′-(5-Bromo-2-oxoindolin-3-ylidene)-2-(1H-indol-3-yl)acetohydrazide] came in with a melting point of more than 300 °C. In series [1] (Homo sapiens, MCF7, 48 h), this compound had an IC50 of 36.2 ± 2.78 µM. 36.6 ± 1.81 µM corresponded to half-maximal inhibition in series [3] (Homo sapiens, MDA-MB-231, 48 h) (IC50).

On to `Cc1ccc2c(c1)C(=NNC(=O)Cc1c[nH]c3ccccc13)C(=O)N2` [Compound 7d, 2-(1H-Indol-3-yl)-N′-(5-methyl-2-oxoindolin-3-ylidene)acetohydrazide], for which the melting point was more than 300 °C. The IC50 in series [1] (Homo sapiens, MCF7, 48 h) stood at 11 ± 0.81 µM. Moreover, in series [2], the “Selectivity Index MCF-10A/MCF-7” value is on record as 5.0 and half-maximal inhibition (IC50) was put at 54.9 µM. For the same compound, in series [3] (Homo sapiens, MDA-MB-231, 48 h), half-maximal inhibition (IC50) required 0.34 ± 0.02 µM. Further, the “potency relative to Staurosporine, MDA-MB-231” value in series [3] came to 30.3 times. Also, the inhibition at 10 µM in series [4] came to 58%.

`Cc1cc(C)c2c(c1)C(=NNC(=O)Cc1c[nH]c3ccccc13)C(=O)N2` [Compound 7f, N′-(5,7-Dimethyl-2-oxoindolin-3-ylidene)-2-(1H-indol-3-yl)acetohydrazide] gave a melting point of 294 to 296 °C. Also, the IC50 in series [1] (Homo sapiens, MCF7, 48 h) was more than 100 µM. For the same compound, the IC50 in series [1] is more than 100 µM. For the same compound, the IC50 in series [3] (Homo sapiens, MDA-MB-231, 48 h) was determined as 77.3 ± 6.21 µM.

As for `CCCN1C(=O)C(=NNC(=O)Cc2c[nH]c3ccccc23)c2ccccc21` [Compound 9b, 2-(1H-Indol-3-yl)-N′-(2-oxo-1-propylindolin-3-ylidene)acetohydrazide], the melting point was 207 to 208 °C. In series [1] (Homo sapiens, MCF7, 48 h), this compound yielded an IC50 of 28.2 ± 1.53 µM. In series [3] (Homo sapiens, MDA-MB-231, 48 h), this compound returned an IC50 of 51.3 ± 3.59 µM.

In turn, `O=C(Cc1c[nH]c2ccccc12)NN=C1C(=O)N(Cc2ccccc2)c2ccccc21` [Compound 9d, N′-(1-Benzyl-2-oxoindolin-3-ylidene)-2-(1H-indol-3-yl)acetohydrazide] showed a melting point of 223 to 225 °C. Half-maximal inhibition in series [1] (Homo sapiens, MCF7, 48 h) (IC50) was put at 1.51 ± 0.03 µM. Also, in series [1], the “potency relative to Staurosporine, MCF-7” value was 4.5 times. In series [2], the “Selectivity Index MCF-10A/MCF-7” value worked out at 12.7 and the midpoint of inhibition, the IC50, lay at 19.1 µM. The compound further returned an IC50 in series [3] (Homo sapiens, MDA-MB-231, 48 h) of 4.14 ± 0.19 µM. Also, the “potency relative to Staurosporine, MDA-MB-231” value in series [3] came to 2.5 times.

The compound `O=C(Cc1c[nH]c2ccccc12)NN=C1C(=O)N(Cc2ccc(F)cc2)c2ccccc21` [Compound 9e, N′-(1-(4-Fluorobenzyl)-2-oxoindolin-3-ylidene)-2-(1H-indol-3-yl)acetohydrazide] showed a melting point of 227 to 229 °C. Further, in series [1] (Homo sapiens, MCF7, 48 h), the IC50 came out at 10.4 ± 0.81 µM. Besides, in series [2], the “Selectivity Index MCF-10A/MCF-7” value is 4.7 and the IC50 was 48.4 µM. Besides, half-maximal inhibition in series [3] (Homo sapiens, MDA-MB-231, 48 h) (IC50) required 17.7 ± 0.55 µM.

On to `N#Cc1ccc(CN2C(=O)C(=NNC(=O)Cc3c[nH]c4ccccc34)c3ccccc32)cc1` [Compound 9f, N′-(1-(4-Cyanobenzyl)-2-oxoindolin-3-ylidene)-2-(1H-indol-3-yl)acetohydrazide], for which the melting point lay in the range of 233 to 234 °C. Also, the IC50 in series [1] (Homo sapiens, MCF7, 48 h) was 8.72 ± 0.39 µM. Besides, in series [2], the “Selectivity Index MCF-10A/MCF-7” value was found to be 4.8 and the IC50 turned out to be 42 µM. In series [3] (Homo sapiens, MDA-MB-231, 48 h), this compound gave an IC50 of 25.4 ± 1.56 µM.

Compound `O=C(Cc1c[nH]c2ccccc12)NN=C1C(=O)N(Cc2ccccc2)c2ccc(Br)cc21` [Compound 9g, N′-(1-Benzyl-5-bromo-2-oxoindolin-3-ylidene)-2-(1H-indol-3-yl)acetohydrazide] displayed a melting point of 210 to 211 °C. In addition, the IC50 in series [1] (Homo sapiens, MCF7, 48 h) worked out at 2.76 ± 0.14 µM. Besides, in series [2], the “Selectivity Index MCF-10A/MCF-7” value amounted to 6.2 and the IC50 was 17.2 µM. In series [3] (Homo sapiens, MDA-MB-231, 48 h), this compound had an IC50 of 2.85 ± 0.07 µM. Besides, in series [3], the “potency relative to non-brominated counterpart (9g vs 9d, 9h vs 9e), MDA-MB-231” value amounted to 1.5 times.

Regarding `O=C(Cc1c[nH]c2ccccc12)NN=C1C(=O)N(Cc2ccc(F)cc2)c2ccc(Br)cc21` [Compound 9h, N′-(5-Bromo-1-(4-fluorobenzyl)-2-oxoindolin-3-ylidene)-2-(1H-indol-3-yl)acetohydrazide], the melting point was in the range of 183 to 185 °C. The same compound yielded an IC50 in series [1] (Homo sapiens, MCF7, 48 h) of 20.89 ± 0.04 µM. Further, in series [2], the “Selectivity Index MCF-10A/MCF-7” value is listed as 1.2 and it took 26.1 µM to reach half-maximal inhibition (IC50). In series [3] (Homo sapiens, MDA-MB-231, 48 h), this compound displayed a half-inhibitory concentration (IC50) of 2.29 ± 0.09 µM. In series [3], the “potency relative to non-brominated counterpart (9g vs 9d, 9h vs 9e), MDA-MB-231” value was 7.7 times.

Take `O=C(Cc1c[nH]c2ccccc12)NN=C1CCCc2ccccc21` [Compound 11, N′-(3,4-Dihydronaphthalen-1(2H)-ylidene)-2-(1H-indol-3-yl)acetohydrazide]: the melting point was 244 to 245 °C. The compound also yielded an IC50 in series [1] (Homo sapiens, MCF7, 48 h) of 84.7 ± 4.02 µM. The same compound displayed an IC50 in series [3] (Homo sapiens, MDA-MB-231, 48 h) of more than 100 µM. Also, the IC50 in series [3] was more than 100 µM.

Take `CN[C@@H]1C[C@H]2O[C@@](C)([C@@H]1OC)n1c3ccccc3c3c4c(c5c6ccccc6n2c5c31)C(=O)NC4` [Staurosporine, reference compound]: in series [1] (Homo sapiens, MCF7, 48 h), inhibition was half-maximal at 6.81 ± 0.22 µM (IC50).

In the case of “N′-(1-(sec-Butyl)-2-oxoindolin-3-ylidene)-2-(1H-indol-3-yl)acetohydrazide [Compound 9c]”, the IC50 is 47.1 ± 3.65 µM in series [1] and more than 100 µM in series [3].

By IC50 is commonly meant the concentration needed to halve the response being measured. In general, melting point refers to the temperature, or range, at which the solid turns liquid.
